The results in this text go back to ChEMBL document CHEMBL4219266, “Identification of quinone analogues as potential inhibitors of picornavirus 3C protease in vitro” (Bioorg Med Chem Lett, 2018).

Activity calls are given as the source filed them. The rule behind the calls is not given here.

Assay [1] has as its target Genome polyprotein (Coxsackievirus B3 (strain Nancy), UniProt P03313). The assay can be described thus: Inhibition of human coxsackievirus B3 protease 3C expressed in Escherichia coli (BL21) using fluorogenic-Dabcyl-KEALFQGPPQFE-Edans as substrate after 1 hr by FRET assay.
Assay [2] concerns the target Genome polyprotein (Coxsackievirus B3 (strain Nancy)) (UniProt P03313). As to the kind of experiment: Inhibition of human coxsackievirus B3 protease 3C expressed in Escherichia coli (BL21) at 40 uM using fluorogenic-Dabcyl-KEALFQGPPQFE-Edans as substrate after 1 hr by FRET assay.
Assay [3] concerns the target Genome polyprotein (rhinovirus B14, UniProt P03303). As to the kind of experiment: Inhibition of recombinant human rhinovirus protease 3C using fluorogenic-Dabcyl-KTSAVLQSGFRKME-Edan as substrate after 5 mins by FRET assay. More on the design: species or system Human rhinovirus sp.
For assay [4], the target named is Genome polyprotein (rhinovirus B14) (UniProt P03303). The assay can be described thus: Inhibition of human rhinovirus protease 3C catalytic activity assessed as suppression of target protein cleavage at 5 uM after 30 mins by SDS-PAGE analysis. The note with it: Human rhinovirus sp.
Genome polyprotein (rhinovirus B14), sequence (P03303 whole entry): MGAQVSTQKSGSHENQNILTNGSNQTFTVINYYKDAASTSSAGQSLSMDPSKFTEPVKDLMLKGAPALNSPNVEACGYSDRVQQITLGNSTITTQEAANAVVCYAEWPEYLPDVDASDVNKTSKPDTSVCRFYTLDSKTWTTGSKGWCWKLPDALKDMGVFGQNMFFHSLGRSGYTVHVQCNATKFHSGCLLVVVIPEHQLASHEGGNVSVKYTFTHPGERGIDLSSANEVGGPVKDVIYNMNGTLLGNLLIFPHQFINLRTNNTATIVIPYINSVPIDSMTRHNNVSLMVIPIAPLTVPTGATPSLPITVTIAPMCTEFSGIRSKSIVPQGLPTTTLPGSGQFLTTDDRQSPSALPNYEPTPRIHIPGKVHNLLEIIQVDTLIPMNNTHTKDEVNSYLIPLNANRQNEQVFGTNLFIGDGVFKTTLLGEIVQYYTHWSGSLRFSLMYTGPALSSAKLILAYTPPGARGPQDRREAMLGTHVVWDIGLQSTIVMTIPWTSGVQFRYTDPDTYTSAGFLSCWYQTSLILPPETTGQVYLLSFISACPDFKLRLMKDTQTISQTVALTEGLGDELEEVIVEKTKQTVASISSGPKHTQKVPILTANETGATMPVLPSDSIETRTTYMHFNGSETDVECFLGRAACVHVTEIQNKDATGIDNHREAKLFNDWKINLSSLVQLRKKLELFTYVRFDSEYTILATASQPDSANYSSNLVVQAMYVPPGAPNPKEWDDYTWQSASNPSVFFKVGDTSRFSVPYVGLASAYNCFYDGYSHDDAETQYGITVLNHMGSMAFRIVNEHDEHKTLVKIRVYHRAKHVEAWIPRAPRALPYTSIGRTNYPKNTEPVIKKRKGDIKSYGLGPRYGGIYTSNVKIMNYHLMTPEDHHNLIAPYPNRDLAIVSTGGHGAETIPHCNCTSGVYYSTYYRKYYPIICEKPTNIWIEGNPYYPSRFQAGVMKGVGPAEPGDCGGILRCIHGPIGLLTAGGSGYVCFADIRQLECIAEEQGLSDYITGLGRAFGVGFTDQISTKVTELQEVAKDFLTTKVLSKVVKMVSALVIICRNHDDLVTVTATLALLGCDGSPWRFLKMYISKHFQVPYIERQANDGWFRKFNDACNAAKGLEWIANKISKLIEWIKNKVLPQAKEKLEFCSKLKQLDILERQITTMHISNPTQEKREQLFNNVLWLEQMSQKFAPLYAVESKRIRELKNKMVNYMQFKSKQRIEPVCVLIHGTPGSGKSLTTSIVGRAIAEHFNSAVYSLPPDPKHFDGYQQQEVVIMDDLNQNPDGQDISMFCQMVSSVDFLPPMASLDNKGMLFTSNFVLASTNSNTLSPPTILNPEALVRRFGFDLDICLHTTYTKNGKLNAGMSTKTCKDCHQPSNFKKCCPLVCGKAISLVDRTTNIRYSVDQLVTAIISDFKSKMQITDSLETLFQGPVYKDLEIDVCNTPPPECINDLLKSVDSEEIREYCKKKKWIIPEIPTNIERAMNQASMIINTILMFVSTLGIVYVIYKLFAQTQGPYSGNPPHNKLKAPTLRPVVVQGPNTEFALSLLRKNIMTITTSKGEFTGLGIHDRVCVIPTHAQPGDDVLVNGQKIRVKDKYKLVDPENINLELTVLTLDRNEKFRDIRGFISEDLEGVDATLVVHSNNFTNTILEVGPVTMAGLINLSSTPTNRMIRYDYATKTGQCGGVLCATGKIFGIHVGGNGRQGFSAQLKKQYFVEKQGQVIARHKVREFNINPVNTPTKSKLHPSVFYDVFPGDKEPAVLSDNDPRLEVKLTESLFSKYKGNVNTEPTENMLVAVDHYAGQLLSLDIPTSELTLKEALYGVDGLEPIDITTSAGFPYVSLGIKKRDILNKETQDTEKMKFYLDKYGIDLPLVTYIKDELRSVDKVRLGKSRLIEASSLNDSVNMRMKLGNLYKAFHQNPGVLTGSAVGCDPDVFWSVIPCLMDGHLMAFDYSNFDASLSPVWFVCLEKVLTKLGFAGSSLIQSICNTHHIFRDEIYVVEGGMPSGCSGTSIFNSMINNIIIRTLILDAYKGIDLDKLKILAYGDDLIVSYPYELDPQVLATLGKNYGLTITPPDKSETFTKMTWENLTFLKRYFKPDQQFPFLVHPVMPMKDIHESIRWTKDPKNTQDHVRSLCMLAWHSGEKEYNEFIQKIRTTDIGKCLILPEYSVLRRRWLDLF
Assay [5] shares this target. As to the kind of experiment: Inhibition of human rhinovirus protease 3C catalytic activity assessed as suppression of target protein cleavage at 50 uM after 30 mins by SDS-PAGE analysis. The note with it: Human rhinovirus sp.

Genome polyprotein (Coxsackievirus B3 (strain Nancy)), sequence (P03313 whole entry): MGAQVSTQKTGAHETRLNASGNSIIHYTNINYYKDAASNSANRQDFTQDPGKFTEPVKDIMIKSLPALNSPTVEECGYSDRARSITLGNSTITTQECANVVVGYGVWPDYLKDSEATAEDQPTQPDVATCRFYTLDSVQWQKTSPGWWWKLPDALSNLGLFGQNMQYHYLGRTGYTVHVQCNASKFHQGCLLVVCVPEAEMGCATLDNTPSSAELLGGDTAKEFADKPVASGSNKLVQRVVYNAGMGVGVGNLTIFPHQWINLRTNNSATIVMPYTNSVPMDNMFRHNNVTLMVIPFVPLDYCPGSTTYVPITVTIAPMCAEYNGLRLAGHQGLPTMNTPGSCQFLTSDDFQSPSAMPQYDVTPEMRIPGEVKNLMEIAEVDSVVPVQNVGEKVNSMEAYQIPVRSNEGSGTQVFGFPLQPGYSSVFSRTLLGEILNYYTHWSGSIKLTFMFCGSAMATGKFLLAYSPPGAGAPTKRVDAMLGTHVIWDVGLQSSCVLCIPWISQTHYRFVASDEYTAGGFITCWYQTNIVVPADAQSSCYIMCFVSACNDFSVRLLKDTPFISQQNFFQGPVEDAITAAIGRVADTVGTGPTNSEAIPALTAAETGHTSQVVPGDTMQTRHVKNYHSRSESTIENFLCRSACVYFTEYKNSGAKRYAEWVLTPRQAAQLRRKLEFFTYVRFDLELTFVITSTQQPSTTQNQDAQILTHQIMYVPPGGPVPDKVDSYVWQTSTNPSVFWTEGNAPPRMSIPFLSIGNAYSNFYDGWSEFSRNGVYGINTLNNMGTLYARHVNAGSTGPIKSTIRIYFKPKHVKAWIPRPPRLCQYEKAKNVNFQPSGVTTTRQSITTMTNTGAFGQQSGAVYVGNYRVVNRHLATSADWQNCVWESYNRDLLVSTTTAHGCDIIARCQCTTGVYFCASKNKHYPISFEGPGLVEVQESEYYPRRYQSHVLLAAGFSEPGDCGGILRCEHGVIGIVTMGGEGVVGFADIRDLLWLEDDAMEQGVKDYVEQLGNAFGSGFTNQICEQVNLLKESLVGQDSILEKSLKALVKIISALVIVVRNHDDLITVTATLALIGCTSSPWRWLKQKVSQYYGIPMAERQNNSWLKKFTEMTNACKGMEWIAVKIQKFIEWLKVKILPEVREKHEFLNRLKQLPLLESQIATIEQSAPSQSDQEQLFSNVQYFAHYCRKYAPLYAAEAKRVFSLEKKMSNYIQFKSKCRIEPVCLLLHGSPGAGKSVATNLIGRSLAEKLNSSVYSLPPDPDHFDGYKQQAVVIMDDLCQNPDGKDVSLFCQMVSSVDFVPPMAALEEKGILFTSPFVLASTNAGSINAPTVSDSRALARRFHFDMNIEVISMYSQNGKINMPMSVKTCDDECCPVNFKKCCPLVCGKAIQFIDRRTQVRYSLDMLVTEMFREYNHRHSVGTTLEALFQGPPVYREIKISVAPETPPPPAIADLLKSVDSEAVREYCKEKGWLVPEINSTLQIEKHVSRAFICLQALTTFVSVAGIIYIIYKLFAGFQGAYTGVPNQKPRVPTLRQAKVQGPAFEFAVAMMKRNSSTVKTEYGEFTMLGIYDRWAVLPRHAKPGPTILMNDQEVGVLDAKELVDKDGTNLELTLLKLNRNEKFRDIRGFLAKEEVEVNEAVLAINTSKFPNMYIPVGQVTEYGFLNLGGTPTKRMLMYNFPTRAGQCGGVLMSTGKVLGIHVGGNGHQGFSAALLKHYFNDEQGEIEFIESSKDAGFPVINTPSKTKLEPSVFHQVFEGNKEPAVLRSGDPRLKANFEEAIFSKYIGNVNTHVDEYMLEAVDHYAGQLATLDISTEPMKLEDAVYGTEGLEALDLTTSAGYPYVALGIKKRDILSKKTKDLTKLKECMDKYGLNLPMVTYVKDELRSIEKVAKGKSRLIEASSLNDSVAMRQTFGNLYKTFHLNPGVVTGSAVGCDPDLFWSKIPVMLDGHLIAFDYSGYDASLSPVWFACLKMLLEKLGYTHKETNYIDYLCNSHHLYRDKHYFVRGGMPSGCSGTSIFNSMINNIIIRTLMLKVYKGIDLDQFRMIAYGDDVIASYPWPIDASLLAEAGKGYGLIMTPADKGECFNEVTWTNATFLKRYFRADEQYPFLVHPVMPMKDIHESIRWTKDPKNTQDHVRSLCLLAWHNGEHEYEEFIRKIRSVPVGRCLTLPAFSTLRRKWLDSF
Genome polyprotein (Coxsackievirus B3 (strain Nancy), UniProt P03313), sequence (P03313 1541-1723 limits assumed): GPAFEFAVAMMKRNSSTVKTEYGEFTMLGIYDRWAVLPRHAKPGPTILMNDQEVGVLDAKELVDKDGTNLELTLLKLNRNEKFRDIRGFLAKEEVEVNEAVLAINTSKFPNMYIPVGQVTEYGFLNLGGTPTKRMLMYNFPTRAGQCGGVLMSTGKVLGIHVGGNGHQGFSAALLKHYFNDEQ
Genome polyprotein (rhinovirus B14, UniProt P03303), sequence (P03303 1538-1719 limits assumed): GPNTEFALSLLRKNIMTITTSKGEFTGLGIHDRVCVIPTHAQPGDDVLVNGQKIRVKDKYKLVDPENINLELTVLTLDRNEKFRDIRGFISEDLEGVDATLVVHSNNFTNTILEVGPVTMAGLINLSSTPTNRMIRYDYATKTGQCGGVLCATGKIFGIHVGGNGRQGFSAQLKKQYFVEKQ

In assay [1], `Cc1[nH]c2ccccc2c1C1=C(Cl)C(=O)c2ncccc2C1=O` gave a half-inhibitory concentration (IC50) of 0.73 µM.

In turn, `O=C(CCN1CCc2ccccc2CC1)c1ccc2c(c1)OCCO2` had an inhibition in assay [2] of more than 64%. In addition, the IC50 in assay [1] amounted to 11.1 µM.

For `Cc1ccc(N/N=C/c2c(O)cc(C)oc2=O)cc1`, the inhibition in assay [2] was more than 64%. The midpoint of inhibition in assay [1], the IC50, lay at 5.4 µM.

`CN(Cc1ccccc1)CC(C(=O)c1ccc(Cl)cc1)n1cnc2ccccc2c1=O` (centres undefined) displayed an inhibition in assay [2] of more than 64%. Also, in assay [1], 6.2 µM corresponded to half-maximal inhibition (IC50).

`COc1ccc(OC2=C(Cl)C(=O)c3ccccc3C2=O)c([N+](=O)[O-])c1`: the IC50 in assay [3] is 0.85 µM; in assay [1], 1.7 µM. For the same compound, the inhibition in assay [2] is more than 64%. Further, the inhibition result in assay [4] is “Active”.

With `O=C1C(Sc2ccccc2)=C(Sc2ccccc2)C(=O)c2[nH]c(-c3ccncc3)nc21`, half-maximal inhibition in assay [1] (IC50) was put at 0.79 µM.

In turn, `O=C1C(Cl)=C(Cl)C(=O)c2ncccc21` came in with an IC50 in assay [1] of 0.63 µM.

In assay [2], `O=C1C=CC(=O)N1c1ccc(OC(F)(F)C(F)F)c(N2C(=O)C=CC2=O)c1` came in with an inhibition of more than 64%. Half-maximal inhibition in assay [1] (IC50) required 1.2 µM.

Consider `O=C1C(Cl)=C(Nc2cccc(Cl)c2)C(=O)c2[nH]c(-c3ccncc3)nc21`, for which, in assay [1], 0.55 µM corresponded to half-maximal inhibition (IC50).

Regarding `COC(=O)/C=C/C(=O)[C@@H](NC(=O)OC(C)(C)C)C(C)C`, the inhibition in assay [2] is more than 64%. The compound also came in with a 50% inhibitory concentration (IC50) in assay [1] of 1.8 µM.

With `Cc1nc2c([nH]1)C(=O)C(Cl)=C(Nc1cc(F)cc(F)c1)C2=O`, the results for the 50% inhibitory concentration (IC50) in assay [3] and in assay [1] were 8.4 µM and 0.9 µM, respectively. In assay [2], this compound had an inhibition of more than 64%. For the same compound, in assay [5], the inhibition result is “Active”.

In turn, `CC1(C)CC(=O)C2=C(C1)OC(=O)C2(Nc1ccccc1)C(F)(F)F` (centres undefined) returned an inhibition in assay [2] of more than 64%. In assay [1], this compound had an IC50 of 8.3 µM.

In assay [1], `Cc1[nH]c2ccccc2c1C1=C(O)C(=O)c2ncccc2C1=O` yielded a 50% inhibitory concentration (IC50) of 1.1 µM.

Take `Cc1ccc(NC2=C(Cl)C(=O)c3nc(C)[nH]c3C2=O)cc1`: the IC50 in assay [1] is 0.83 µM.

In assay [1], `O=C1C(Oc2ccc(O)cc2)=C(Oc2ccc(O)cc2)C(=O)c2ncccc21` returned a concentration for half-maximal inhibition (IC50) of 1.2 µM.

The compound `Cc1nc2c([nH]1)C(=O)C(Nc1ccc(C(F)(F)F)cc1)=C(Cl)C2=O` yielded an IC50 in assay [1] of 0.84 µM.

`O=C1C(Sc2ccc(Cl)cc2)=C(Sc2ccc(Cl)cc2)C(=O)c2[nH]c(-c3ccncc3)nc21`: the IC50 in assay [1] came out at 0.57 µM.
